Values quoted from earlier work in US11154501B2, “Method of enhancing the efficacy and stability of ingredients in suspensions” (Nanophase Technologies Corporation, priority 2019, dated 2021).

Conditions: for solubility limit: in water at 25° C.

Row | Structure (SMILES) | solubility limit | solubility (in words) (in neutral water)
1 | NC(=O)NC1NC(=O)NC1=O (stereo not drawn) [allantoin, (2,5-dioxo-4-imidazolidinyl) urea, reference compound] | 0.5% | –
2 | O.O.O=c1c(O)c(-c2ccc(O)c(O)c2)oc2cc(O)cc(O)c12 [quercetin dihydrate] | – | very poorly soluble
3 | C[C@@H]1O[C@@H](OC[C@H]2O[C@@H](Oc3c(-c4ccc(O)c(O)c4)oc4cc(O)cc(O)c4c3=O)[C@H](O)[C@@H](O)[C@@H]2O)[C@H](O)[C@H](O)[C@H]1O [rutin] | 0.013% | –
